Results on 18 molecules are retold here after ChEMBL document CHEMBL5331132, “Expanding the Chemistry of Dihaloacetamides as Tunable Electrophiles for Reversible Covalent Targeting of Cysteines” (J Med Chem, 2023).

Active and inactive are the calls of the source. No cut-off for these calls is given here. Some results are limits rather than exact numbers.

The subject of series [1] is GTPase KRas (Homo sapiens), P01116 [G12C]. Kind of series: Binding affinity to KRAS G12C mutant in human NCI-H358 cells assessed as protein labelling at 1 uM incubated for 1 hrs by In-gel fluorescence analysis. The class given is cell-based.
A short description of series [2]: Antiproliferative activity against human gefitinib resistant NCI-H1975 cells harboring EGFR L858R/T790M double mutant assessed as inhibition of cell proliferation incubated for 72 hrs by cell count reagent SF based assay. The class given is functional.
The target in series [3] is Epidermal growth factor receptor (Homo sapiens) (UniProt P00533). In words: Inhibition of EGFR autophosphorylation at Y1068 residue in human NCI-H1975 cells at 0.01 to 1 uM incubated for 4 hrs by Western blot analysis. The class given is cell-based. To be noted: dose 0.01-1 µM.
For series [4] the target is unchanged. Kind of series: Inhibition of EGFR autophosphorylation in human NCI-H1975 cells assessed as reduction in ERK1/2 phosphorylation at T185/Y187 residue at 0.01 to 1 uM incubated for 4 hrs by Western blot analysis. The class given is cell-based. As to conditions: dose 0.01-1 µM.
The subject of series [5] is GTPase KRas (Homo sapiens), P01116 [G12C]. In words: Inhibition of KRAS G12C mutant in human NCI-H358 cells assessed as reduction in ERK1/2 phosphorylation at T185/Y187 residues at 0.1 uM incubated for 4 hrs by Western blot analysis relative to control. Type of series: cell-based.
The test system of series [6] is NCI-H358. Kind of series: Antiproliferative activity against human NCI-H358 cells harboring KRAS p.G12C mutant assessed as inhibition of cell growth incubated for 72 hrs by cell count reagent SF based assay. Type of series: functional. To be noted: NCI-H358, 72 h.
Series [7] deals with GTPase KRas (Homo sapiens), P01116 [G12C]. In words: Inhibition of KRAS G12C mutant in human NCI-H358 cells assessed as reduction in ERK1/2 phosphorylation at T185/Y187 residues at 1 uM incubated for 4 hrs by Western blot analysis. The class given is cell-based.
Series [8] is described as follows: Metabolic stability in human liver microsomes assessed as clearance at 1 uM incubated for 30 mins by LC-MS/MS analysis. The class given is ADME, Microsome. As to conditions: read-out: CLH.
Series [9] is described as follows: Glutathione reactivity in potassium phosphate buffer at pH 7.2 assessed as half life at 1 mM by UHPLC analysis. Type of series: physicochemical.
Series [10] relates to GTPase KRas (Homo sapiens), P01116 [G12C]. In words: Inhibition of KRAS G12C mutant in human NCI-H358 cells assessed as reduction in ERK1/2 phosphorylation at T185/Y187 residues upto 10 uM incubated for 4 hrs by Western blot analysis. Type of series: cell-based.
In series [11] the test system is MIA PaCa-2. In words: Antiproliferative activity against human MIA PaCa-2 cells assessed as inhibition of cell growth incubated for 72 hrs by cell count reagent SF based assay. To be noted: MIA PaCa-2, 72 h. Type of series: functional.
The test system of series [12] is GTPase KRas (Homo sapiens), P01116 [G12C]. In words: Inhibition of KRAS G12C mutant in human MIA PaCa-2 cells assessed as reduction in ERK1/2 phosphorylation at T185/Y187 residues at 0.001 to 1 uM incubated for 4 hrs by Western blot analysis. Type of series: cell-based. As to conditions: dose 0.001-1 µM.
Series [13] has the same test system. In words: Covalent inhibition of KRAS G12C mutant in human NCI-H358 cells assessed as reduction in protein labelling by probe at 1 uM preincubated for 3 hrs and further incubated with 2-((S)-4-(7-(8-chloronaphthalen-1-yl)-2-(((S)-1-(pent-4-yn-1-yl)pyrrolidin-2-yl)methoxy)-5,6,7,8-tetrahydropyrido[3,4-d]pyrimi …. Type of series: cell-based. To be noted: time 4.0 hrs.

Series [14] shares this test system. Kind of series: Inhibition of KRAS G12C mutant in human NCI-H358 cells assessed as reduction in ERK1/2 phosphorylation at T185/Y187 residues at 0.001 to 1 uM incubated for 4 hrs by Western blot analysis. Type of series: cell-based. To be noted: dose 0.001-1 µM.
Series [15] has the same test system. Kind of series: Inhibition of KRAS G12C mutant in human NCI-H358 cells assessed as reduction in ERK1/2 phosphorylation at T185/Y187 residues at 0.5 uM incubated for 0.5 to 4 hrs by Western blot analysis. The class given is cell-based. To be noted: time 0.5-4 hrs.
Series [16] shares this test system. Kind of series: Irreversible inhibition of KRAS G12C mutant in human NCI-H358 cells assessed as reduction in ERK1/2 phosphorylation at T185/Y187 residues at 0.001 to 1 uM incubated for 4 hrs followed by washout and further incubated with fresh medium for 4 hrs by Western blot analysis. To be noted: dose 0.001-1 µM. The class given is cell-based.
The test system is the same in series [17]. Kind of series: Inhibition of KRAS G12C mutant in human MIA PaCa-2 cells assessed as reduction in ERK1/2 phosphorylation at T185/Y187 residues at 0.5 uM incubated for 0.5 to 4 hrs by Western blot analysis. The class given is cell-based. To be noted: time 0.5-4 hrs.
Series [18] has the same test system. Kind of series: Covalent binding affinity to recombinant human KRAS G12C mutant (1 to 169 residues) expressed in Escherichia coli BL21 (DE3) gold assessed as protein labelling at 1 uM incubated for 2 hrs by In-gel fluorescence analysis.

On to `C#CCCCN1CCC[C@H]1COc1nc2c(c(N3CCN(C(=O)C(=C)F)[C@@H](CC#N)C3)n1)CCN(c1cccc3cccc(Cl)c13)C2`, for which the outcome in series [1] was Active.

Turning to `O=C(Nc1cc2c(Nc3ccc(F)c(Cl)c3)ncnc2cc1OCCCN1CCOCC1)[C@H]1CCCN1C(=O)C(Cl)Cl`, in series [2], the IC50 was 490 nM. Also, the inhibition result in series [3] and in series [4] was “Active” each time.

With `CN1CCC[C@H]1COc1nc2c(c(N3CCN(C(=O)C(Cl)Cl)[C@@H](CC#N)C3)n1)CCN(c1cccc3cccc(Cl)c13)C2`, the inhibition in series [5] is 100%. Besides, in [6], the IC50 turned out to be 26.1 nM. The inhibition entry in series [7] was “Active”. In addition, the microsomal CLint at 1 µM in [8] came to 226 µL/min/mg.

Consider `CN1CCC[C@H]1COc1nc2c(c(N3CCN(C(=O)[C@H](F)Cl)[C@@H](CC#N)C3)n1)CCN(c1cccc3cccc(Cl)c13)C2`, for which the IC50 in series [6] was found to be 162 nM.

With `C#CCOCCOCCOc1cccc(N2CCN(C(=O)C(F)F)CC2)c1`, the half-life at 1000 µM in series [9] was found to be 129 h.

Take `C#CCOCCOCCOc1cccc(N2CCN(C(=O)CF)CC2)c1`: the half-life at 1000 µM in series [9] is greater than 167 h.

Turning to `C#CCOCCOCCOc1cccc(N2CCN(C(=O)C(C)(F)Br)CC2)c1` (centres undefined), the half-life at 1000 µM in [9] was greater than 167 h.

Regarding `C#CCOCCOCCOc1cccc(N2CCN(C(=O)C(F)(F)Br)CC2)c1`, the half-life at 1000 µM in [9] stood at 33.4 h.

As for `CC(=O)N1CCN(c2nc(OC[C@@H]3CCCN3C)nc3c2CCN(c2cccc4cccc(Cl)c24)C3)C[C@@H]1CC#N` (racemic), the IC50 in series [6] is greater than 10000 nM. Moreover, the inhibition result in series [10] was “inactive”.

For `CN1CCC[C@H]1COc1nc2c(c(N3CCN(C(=O)C(F)Cl)CC3)n1)CCN(c1cccc3cccc(Cl)c13)C2` (some centres undefined), the IC50 in series [6] was determined as 4800 nM.

With `CN1CCC[C@H]1COc1nc2c(c(N3CCN(C(=O)CCl)[C@@H](CC#N)C3)n1)CCN(c1cccc3cccc(Cl)c13)C2`, the IC50 in series [6] amounted to 1390 nM.

For `C=C(F)C(=O)N1CCN(c2nc(OC[C@@H]3CCCN3C)nc3c2CCN(c2cccc4cccc(Cl)c24)C3)C[C@@H]1CC#N` [ADAGRASIB], the IC50 in [11] was 3.92 nM; in series [6] it was 9.2 nM. Besides, the microsomal CLint at 1 µM in [8] was determined as 215 µL/min/mg.

On to `CN1CCC[C@H]1COc1nc2c(c(N3CCN(C(=O)C(Cl)Cl)[C@@H](CC#N)C3)n1)CCN(c1cccc3ccc(F)c(Cl)c13)C2`, for which the inhibition entry in [12], in [13], in series [14], in series [15], in series [16] and in [17] was “Active” in each case. Further, the IC50 was found to be 5.68 nM in [11] and 10 nM in [6]. In addition, the microsomal CLint at 1 µM in series [8] was determined as 110 µL/min/mg.

With `CN1CCC[C@H]1COc1nc2c(c(N3CCN(C(=O)C(F)Cl)[C@@H](CC#N)C3)n1)CCN(c1cccc3cccc(Cl)c13)C2` (some centres undefined), the IC50 in [6] was determined as 16.7 nM.

Consider `CN1CCC[C@H]1COc1nc2c(c(N3CCN(C(=O)[C@@H](F)Cl)[C@@H](CC#N)C3)n1)CCN(c1cccc3cccc(Cl)c13)C2`, for which the inhibition in series [5] was determined as 100%. The IC50 in [6] turned out to be 12.3 nM. Moreover, the inhibition result in [7] was “Active”. Moreover, the microsomal CLint at 1 µM in [8] stood at 272 µL/min/mg.

As to `O=C(Nc1cc2c(Nc3ccc(F)c(Cl)c3)ncnc2cc1OCCCN1CCOCC1)[C@H]1CCCN1C(=O)C(F)Cl` (some centres undefined), the 50% inhibitory concentration (IC50) in [2] amounted to 280 nM.

`C#CCCCN1CCC[C@H]1COc1nc2c(c(N3CCN(C(=O)[C@@H](F)Cl)[C@@H](CC#N)C3)n1)CCN(c1cccc3cccc(Cl)c13)C2`: the IC50 in series [6] was 365 nM. Besides, the result in series [18] was Active.

As to `C#CCCCN1CCC[C@H]1COc1nc2c(c(N3CCN(C(=O)C(Cl)Cl)[C@@H](CC#N)C3)n1)CCN(c1cccc3ccc(F)c(Cl)c13)C2`, the IC50 in [6] came out at 69.7 nM. Besides, the result in [18] was Active.
